Values joined by “and” are separate entries in the source; they are usually repeats but may differ in a detail not shown here. Equal entries are not always repeated.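 48-hour exposure; five concentrations; linearly interpolated endpoints. At the GI50, growth is halved. Definition used: TGI = concentration required for complete inhibition of growth.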
Key:
Test in all cases: NCI anticancer screen, dose series, 48 h
[1] = system: K-562 leukemia
[2] = system: NCI-H23 lung
[3] = system: SK-MEL-2 melanoma
[4] = system: SNB-75 CNS
[5] = system: HCT-116 colon
[6] = system: MOLT-4 leukemia
[7] = system: RPMI-8226 leukemia
[8] = system: IGROV1 ovarian
[9] = system: CCRF-CEM leukemia
[10] = system: OVCAR-5 ovarian

Row | SMILES | GI50 [1] [µM] | TGI [1] | GI50 [2] [µM] | TGI [2] | GI50 [3] [µM] | TGI [3] | GI50 [4] [µM] | TGI [4] | GI50 [5] [µM] | TGI [5] | GI50 [6] [µM] | TGI [6] | GI50 [7] [µM] | TGI [7] | GI50 [8] [µM] | TGI [8] | GI50 [9] [µM] | TGI [9] | GI50 [10] [µM] | TGI [10]
1 | OC(COc1cccc2ccccc12)CN1CCN(c2ccccc2)CC1 (stereo unspecified) | 13.7 | 34 µM | 15.9 | 31.9 µM | 16.2 | 30.6 µM | 13.7 | 27.2 µM | 13.4 | 27 µM | 16.3 | 56.3 µM | 17 | 42.9 µM | 14.6 | 29.5 µM | 17.9 | 53.2 µM | 16.4 | 30.8 µM
2 | COc1ccc(/C=C\c2cc(OC)c(OC)c(OC)c2)cc1OC(=O)c1cccc(Cn2cc(CCOC(=O)c3cccc(Cn4nnc5c4C(=O)c4ccccc4C5=O)c3)nn2)c1 | < 0.01 | > 100 µM | < 0.01 | 18.3 µM |  | 33.1 µM | < 0.01 | 22.1 µM | < 0.01 | > 33.2 µM | 0.0129 | > 100 µM | < 0.01 | > 100 µM | 0.0252 | 26.4 µM | < 0.01 | > 100 µM | 0.0542 | > 100 µM
3 | CC(=O)OC[C@]12CC[C@@H]([C@@H](C)C(N)=O)[C@@H]1[C@H]1CC[C@@H]3[C@@]4(C)CC[C@H](OC(C)=O)C(C)(C)[C@@H]4CC[C@@]3(C)[C@]1(C)CC2 | 4.09 | 35.7 µM | 9.42 | 33.6 µM | 10.8 | 27.5 µM | 5.59 | 44.6 µM | 3.57 | 14.7 µM | 3.29 | 15.2 µM | 2.63 | 12.4 µM | 13.2 | 30 µM | 5.19 | 30 µM | 14.4 | 32.2 µM
4 | CC1=C(c2cc(C(=O)Nc3ccc(Cl)c(Cl)c3)nc(N)n2)Sc2ccccc2N1 |  | > 100 µM |  | > 100 µM |  | > 100 µM |  | > 100 µM |  | > 100 µM |  | > 100 µM |  | > 100 µM |  | > 100 µM |  | > 100 µM |  | > 100 µM
5 | C#CCNC(=O)CC[C@]1(C)[C@H]2CC[C@@H]3[C@@H]([C@@](C)(O)CCC=C(C)C)CC[C@@]3(C)[C@]2(C)CC[C@H]1C(=C)C | 17.8 | 49.6 µM | 27.7 | > 100 µM | 47.1 | > 100 µM | > 100 | > 100 µM | 17.8 | 35.6 µM | 17 | 47.3 µM | 20.1 | 62.9 µM | 10.2 | 25.4 µM | 6.77 | 28.7 µM | 51.9 | > 100 µM
6 | COc1c(CNC(=O)CCl)cc2[nH]c(C)cc2c1CNC(=O)CCl | 8.42 | > 100 µM | 7.14 | 31.3 µM | 11 | 41.6 µM | 6.43 | 33 µM | 2.93 | 15.7 µM | 5.19 | 83.8 µM | 5.17 | 52.8 µM | 3.49 | > 100 µM | 2.71 | > 100 µM | 5.44 | 25.9 µM
7 | CC1=C(/C=C/C(C)=C/C=C/C(C)=C/C(=O)Nc2ccc(O)cc2)C(C)(C)CCC1 | 1.38 | 4.28 µM and > 40.4 µM | 1.83 | 5.41 µM and 5.3 µM | 4.17 | 13.3 µM and 17.4 µM | 1.81 | 5.85 µM and 23.2 µM | 2.05 | 4.6 µM and 15.7 µM | 0.391 | 2.11 µM and 5.53 µM | 1.09 | 8.9 µM and 9.14 µM | 1.19 | 3.68 µM and 4.91 µM | 0.238 | 13.5 µM and 3.59 µM | 12.5 | 26.8 µM and 24 µM
8 | O=C1c2ccccc2-c2c1c1ccccc1c(=O)n2CCCN1CCN(CCCn2c3c(c4ccccc4c2=O)C(=O)c2ccccc2-3)CC1 | 42.7 | > 100 µM | 34.5 | > 83.8 µM | > 100 | > 100 µM | > 47.7 | > 84 µM | 35.3 | > 100 µM | 0.325 | 21.9 µM | > 52.2 | > 100 µM | > 35 | > 100 µM | 13.8 | > 100 µM | > 100 | > 100 µM
9 | CCOC(=O)C1=C(C)NC(=O)NC1c1coc2cc(C)cc(C)c2c1=O (stereo unspecified) |  | > 100 µM |  | > 100 µM |  | 99.5 µM |  | > 100 µM |  | > 100 µM |  | > 100 µM |  | > 100 µM |  | > 100 µM |  | > 100 µM |  | > 100 µM
10 | CCCCN(CCCC)CCCN=c1nc2c(c(N)n1-c1ccccc1)c(=S)n(-c1ccccc1)c(=S)n2-c1ccccc1 | 0.54 | > 100 µM | 1.88 | 3.97 µM | 1.74 | 3.47 µM | 0.719 | 2.11 µM | 0.412 | 1.5 µM | 0.141 | > 34.1 µM | 0.159 | 0.327 µM | 1.9 | 3.79 µM | 0.215 |  | 1.67 | 3.24 µM
11 | Clc1ccc(-c2nn3ncccc3c2-c2ccnc(Nc3ccccc3)n2)cc1 | 2.89 | > 25 µM | 10.5 | > 25 µM | 24.4 | > 25 µM | 6.31 | > 25 µM | 7.02 | > 25 µM | 5.77 | > 25 µM | 11.7 | > 25 µM | 2.29 | > 22 µM | 10.6 | > 25 µM | 11.9 | > 25 µM
12 | COc1cc(C2CC(c3cc(C)ccc3C)=NN2c2ccc(S(=O)(=O)NC(=O)NCc3ccccc3)cc2)cc(OC)c1OC (stereo unspecified) | 4 | 34.1 µM | 3.37 | 19.5 µM | 2.81 | 6.25 µM | 2.33 | 9.32 µM | 3.21 | > 100 µM | 3.24 | 25.2 µM | 2.8 | 9.11 µM | 3.95 | 19.8 µM | 3.15 | 18.6 µM | 4.19 | 26.1 µM
13 | COc1ccc(C2=C(c3cc(OC)c(OC)c(OC)c3)C(=O)CC2)cc1 | 0.0449 | > 100 µM | 0.313 | > 100 µM | 0.971 |  | 0.224 | > 100 µM | 0.156 | > 100 µM | 0.405 | > 100 µM | 0.255 | 7 µM | 0.58 | > 100 µM | 0.21 |  | 0.662 | > 100 µM
14 | CC(C)(C)[Si](C)(C)O/N=C\c1ccc(O[Si](C)(C)C(C)(C)C)cc1 |  | > 100 µM |  | > 100 µM |  | > 100 µM |  | > 100 µM |  | 63 µM |  | > 100 µM |  | > 100 µM |  | > 100 µM |  | > 100 µM |  | > 100 µM
15 | CC[C@@H](C(=O)[C@@H](C)[C@@H](O)[C@H](C)[C@@H]1O[C@@H]([C@@H](CC)C(=O)O)CC[C@@H]1C)[C@H]1OC2(C=C[C@@H](O)[C@]3(CC[C@@](C)([C@H]4CC[C@](O)(CC)[C@H](C)O4)O3)O2)[C@H](C)C[C@@H]1C (stereo partly specified) | 0.213 | 3.39 µM | 0.207 | 15.4 µM | 0.622 | 2 µM | 1.2 | > 24.2 µM | 0.359 | 14.4 µM | 0.726 | 2.5 µM | 0.117 | 4.48 µM | 1.84 | > 50 µM | 0.285 | 10.7 µM | 7.87 | > 50 µM
16 | N#CN1CCC[C@H]1C(=O)N1CCc2c(-c3[nH]nc4ncccc34)cccc21 | < 0.01 | > 37.8 µM | < 0.01 | 17.3 µM | < 0.01 | 18.2 µM | 0.211 | 2.78 µM | < 0.01 | 8.14 µM | < 0.01 | 11 µM | < 0.01 | 7.47 µM | 0.0862 | 12.6 µM | < 0.01 | 28.4 µM | < 0.0156 | 17.4 µM
17 | COC(=O)[C@@]1(C)CC[C@]2(C)CC[C@]3(C)C4=CC=C5C(=CC(=O)C(O)=C5C)[C@]4(C)CC[C@@]3(C)[C@@H]2C1 | 0.251 | 0.715 µM | 0.235 | 0.637 µM | 0.24 | 0.555 µM | 0.313 | 0.854 µM | 0.163 | 0.32 µM | 0.164 | 0.525 µM | 0.183 | 0.517 µM | 0.198 | 0.46 µM | 0.21 | 0.745 µM | 0.44 | 1.5 µM
18 | CC(=O)OC(C)(C)N=Nc1ccc(Br)cc1 |  | 21.4 µM |  | > 100 µM |  | > 100 µM |  | > 91.5 µM |  | > 100 µM |  | > 90.3 µM |  | 36.2 µM |  | > 100 µM |  | > 78.5 µM |  | > 100 µM

From PubChem BioAssay (NCI)
